The record followed here is ChEMBL document CHEMBL3507680, “University of Dundee, Gates Library screen for HepG2 cell viability”.

The nature of the data set: Human HepG2 cell viability assay in 384 well format. The format is toxicity, cell-based. Set-up: dose 125 nL, time 70.5 hour; cytotoxicity at 70.5 h: concentration not given beside the values. The conditions noted are these: HepG2 cells, read-out: Inhibition.
In the case of `CN(Cc1ccccc1O)CC1CCCN(CCc2ccc(Cl)cc2)C1` (stereo not drawn), the cytotoxicity at 70.5 h is -2.45%.

As to `Cc1ccc(CN2CC[C@H]3CO[C@H](CN(C)C)[C@H]3C2)o1`, the cytotoxicity at 70.5 h is -11.2%.

Turning to `COCCNC(=O)[C@]12COC[C@H]1CN(C1CCOCC1)C2`, the cytotoxicity at 70.5 h was determined as 10.6%.

For `CN1C(=O)CC(c2ccccc2)C12CCN(c1ncccn1)CC2` (stereo not drawn), the cytotoxicity at 70.5 h turned out to be 27.6%.

Take `CC(C)NC(=O)N1C[C@H]2C[C@H](C(=O)N3CCCC3)[C@@H](C1)O2`: the cytotoxicity at 70.5 h was found to be 21.9%.

Take `COCCN1C[C@@H]2CN(c3cnccn3)C[C@@H]2C1=O`: the cytotoxicity at 70.5 h is -10.9%.

In the case of `O=C(Cc1ccco1)N1C[C@@H]2COC[C@]2(COCC2CCOCC2)C1`, the cytotoxicity at 70.5 h is -7.33%.

`CC(C)[C@H]1CN(Cc2ccccn2)C[C@@H]1NS(=O)(=O)C1CC1`: the cytotoxicity at 70.5 h was -3.34%.

In the case of `CCCOC1CCCN(c2ncnc3c2CCN(C(=O)C2CC2)C3)C1` (stereo not drawn), the cytotoxicity at 70.5 h is -7.75%.

Take `COc1cc2c(cc1CNC(=O)C(C)n1ccnc1C(C)C)CCC2` (stereo not drawn): the cytotoxicity at 70.5 h was -11.2%.

On to `Cc1nc(CN2CCN(c3cc(CCN)ncn3)CC2)cs1`, for which the cytotoxicity at 70.5 h was -2.73%.

`Cc1nc(C)n(CCCNc2ncnc(C)c2C)n1`: the cytotoxicity at 70.5 h was found to be 18%.

`Cc1nn(CCO)c(C)c1-c1cc(C(C)(C)C)nc(N)c1C#N`: the cytotoxicity at 70.5 h amounted to 16.9%.

In the case of `Cc1ccnc(N2Cc3cnn(Cc4ccc(F)cc4)c3C2)n1`, the cytotoxicity at 70.5 h came to 15.1%.

Take `N[C@H]1CN(C(=O)CCCc2ccc(F)cc2)C[C@@H]1C1CC1`: the cytotoxicity at 70.5 h is -6.92%.

On to `CN(C)CCCN(C)C1CCN(c2cccc(-c3cscn3)c2)CC1`, for which the cytotoxicity at 70.5 h was -2.04%.

In the case of `O=C(O)C1(Cc2ccccc2F)CCCN(c2ncnc3[nH]ccc23)C1` (stereo not drawn), the cytotoxicity at 70.5 h is -0.879%.

Take `CC(=O)NCc1cc2n(n1)CCN(Cc1cccc(Cl)c1Cl)C2`: the cytotoxicity at 70.5 h stood at 0.275%.

In the case of `CC(C)c1noc(CN(C)C(=O)c2ncn[nH]2)n1`, the cytotoxicity at 70.5 h was found to be 3.61%.

As to `CC1CCc2n[nH]c(C(=O)NCCc3ccco3)c2C1` (stereo not drawn), the cytotoxicity at 70.5 h is -2.98%.

As to `Cc1c(C(=O)N2CCCC(O)(CN(C)C)CC2)c2cc(O)ccc2n1C` (stereo not drawn), the cytotoxicity at 70.5 h stood at 13.3%.

Consider `Cc1nnc(SCCNc2cc(C3CC3)ncn2)s1`, for which the cytotoxicity at 70.5 h is -5.85%.

In the case of `CNS(=O)(=O)CCN1CC(c2ccccc2)(c2ccccc2)CCC1=O`, the cytotoxicity at 70.5 h was 5.38%.

For `CC(CN1CCC(CCO)CC1)n1cnc2ccccc21` (stereo not drawn), the cytotoxicity at 70.5 h was -11.4%.

Consider `COc1ccc(-n2cccn2)c(CN2CCC(O)(CO)CC2)c1`, for which the cytotoxicity at 70.5 h is -11.1%.

As to `CCCc1nnc(NCCc2noc(C3CCCC3)n2)o1`, the cytotoxicity at 70.5 h was determined as 9.03%.

In the case of `NC(=O)c1nc(CN2CCOC(C(F)(F)F)C2)no1` (stereo not drawn), the cytotoxicity at 70.5 h was found to be 11.5%.

Consider `COc1ccc(-n2nc(C)c(C(C)=O)c2C)cc1CO`, for which the cytotoxicity at 70.5 h was determined as 0.889%.

Regarding `CC(NC(=O)CCCn1cnc2ccccc2c1=O)c1ncn[nH]1` (stereo not drawn), the cytotoxicity at 70.5 h is -15.2%.

In the case of `CCn1ncc2c1NC(=O)CC2c1cnc(NCc2ccccc2)nc1` (stereo not drawn), the cytotoxicity at 70.5 h worked out at 14.7%.

Consider `Cc1cc(CN(C)C(=O)c2cccc(CCC(C)(C)O)c2)no1`, for which the cytotoxicity at 70.5 h was -7.67%.

As to `CCNc1ncc(C(=O)N(C)CCc2nc3cc(Cl)ccc3[nH]2)cn1`, the cytotoxicity at 70.5 h was -16.7%.

On to `Cc1ccc(Oc2ncccc2CNC2CCSCC2)cn1`, for which the cytotoxicity at 70.5 h was -8.64%.

Consider `CCC1CN(C(=O)c2ccccc2N2CCOCC2)CCN1C(C)C` (stereo not drawn), for which the cytotoxicity at 70.5 h was -1.59%.

As to `O=S1(=O)COCCN1Cc1ccc(Cl)c(Cl)c1`, the cytotoxicity at 70.5 h is -6.71%.

Consider `O=C1NCCCc2[nH]c(Cc3ccc(F)cc3)nc21`, for which the cytotoxicity at 70.5 h is -6%.

Take `Cc1ccc(OCCN(C)Cc2nccn2C)c(C)c1`: the cytotoxicity at 70.5 h is -9.5%.

With `OCc1csc(N2C[C@@H](CN3CCCCCC3)[C@@H](CO)C2)n1`, the cytotoxicity at 70.5 h is -7.86%.

Regarding `CC(=O)N[C@@H]1CN(Cc2ccco2)C[C@H]1c1ccc(C)o1`, the cytotoxicity at 70.5 h is -6.07%.

For the molecule `Cc1nc[nH]c1CN1C[C@@H]2CC[C@H](C1)N(C(=O)CCn1cncn1)C2`, the cytotoxicity at 70.5 h is -15%.

Consider `c1ccc(Cc2noc(-c3ccc(NCC4COCCO4)nc3)n2)cc1` (stereo not drawn), for which the cytotoxicity at 70.5 h is -5.85%.

As to `CCN1CCCC1Cn1ccc2ccc(C(=O)OC)cc2c1=O` (stereo not drawn), the cytotoxicity at 70.5 h is -8.61%.

Turning to `CN(C)S(=O)(=O)N1C[C@@H]2CC[C@H](C1)N(Cc1ccc3c(c1)OCCO3)C2`, the cytotoxicity at 70.5 h was -3.43%.

Consider `CCC[C@H]1CN(c2cncc(C(=O)N(C)C)n2)C[C@@H]1N(C)C`, for which the cytotoxicity at 70.5 h amounted to 19.4%.

For the molecule `COc1cccc(C(=O)C2CCCN(c3nccc(N)n3)C2)c1` (stereo not drawn), the cytotoxicity at 70.5 h is -3.78%.

`O=C1CCC2(CCN(Cc3ccoc3)CC2)N1OCc1ccccc1F`: the cytotoxicity at 70.5 h was -7.61%.

Take `OCCCN1CCOC(c2ccc(F)cc2)C1` (stereo not drawn): the cytotoxicity at 70.5 h is -6.31%.

As for `Cn1c(-c2ccc(F)cc2)cn2cc(C(=O)N3CCC(N)C3)nc2c1=O` (stereo not drawn), the cytotoxicity at 70.5 h was -9.46%.

`COc1ncc(CN2CCOC(Cc3cccc4ccccc34)C2)cn1` (stereo not drawn): the cytotoxicity at 70.5 h turned out to be 20%.

For `CC(=O)N1CCN(Cc2ccc(C(F)(F)F)cc2F)CC(O)C1` (stereo not drawn), the cytotoxicity at 70.5 h was -10.5%.

Consider `CCOc1ccc(-c2c(C#N)c(N)nc3c2COCC3)cn1`, for which the cytotoxicity at 70.5 h was -15%.

Regarding `COc1ccc(NC2(C(=O)N3CCn4cncc4C3)CCCC2)cc1`, the cytotoxicity at 70.5 h is -11.8%.

For the molecule `O=C(c1cn[nH]c1)N1CCC2(CCCN(Cc3ccc(F)c(F)c3)C2)C1` (stereo not drawn), the cytotoxicity at 70.5 h is -8.34%.

For `COC(=O)CN1CCN(c2nc3c(s2)c(C)nn3C)C(C)C1=O` (stereo not drawn), the cytotoxicity at 70.5 h was found to be 3.44%.

For `CC(c1cccc(-c2ccc(C(=O)O)cc2Cl)c1)N(C)C` (stereo not drawn), the cytotoxicity at 70.5 h was -1.21%.

As for `O=C(O)CNc1cc(-c2nccnc2N2CCCC2)c2cc[nH]c2n1`, the cytotoxicity at 70.5 h came out at 0.303%.

Turning to `c1cncc(CNc2ccc3nc(C4CCNCC4)nn3c2)c1`, the cytotoxicity at 70.5 h was -4.24%.

For the molecule `O=C(NC1CC1)[C@H]1CC[C@@H]2[C@@H](CCN2CCOCc2ccccc2)O1`, the cytotoxicity at 70.5 h was -8.73%.

On to `Cn1ccc(C(=O)N2C[C@@H]3CCN(c4cnccn4)C[C@@H]3C2)n1`, for which the cytotoxicity at 70.5 h is -9.79%.

Regarding `Cc1ccc(N2CC[C@H]3CN(C(=O)c4ccn(C)n4)C[C@H]3C2)nn1`, the cytotoxicity at 70.5 h was -7.56%.

With `CNC(=O)[C@H]1C[C@@H]2CN(Cc3c(C)noc3C)C[C@@H]2N1C(C)=O`, the cytotoxicity at 70.5 h is -3.36%.

Regarding `CCCN1CC[C@@H]2[C@@H](CO[C@H]2CNC(=O)c2nccn2C)C1`, the cytotoxicity at 70.5 h was -5.44%.

For `O=C1[C@@H]2CN(Cc3ccccn3)C[C@H]2CCN1c1cncnc1`, the cytotoxicity at 70.5 h is -4.74%.

Take `Cc1cc(CN2CC[C@]3(C[C@@H](OCC(=O)N(C)C)CO3)C2)no1`: the cytotoxicity at 70.5 h is -6.96%.

Consider `Cn1cc(N2C[C@@H]3CN(Cc4ccccn4)C[C@@H]3C2=O)cn1`, for which the cytotoxicity at 70.5 h came to 24.4%.

In the case of `CNC(=O)[C@@H]1C[C@H]2CN(Cc3c(C)noc3C)C[C@H]2N1C(C)C`, the cytotoxicity at 70.5 h is -7.3%.

On to `CCCN1CCC(c2nc3ccc(NCc4ccccc4)cn3n2)CC1`, for which the cytotoxicity at 70.5 h was -1.96%.

As to `CC(C)CCN1CCc2[nH]nc(C(=O)N3CC=CC3)c2C1`, the cytotoxicity at 70.5 h was -6.59%.
